The test system of assay [1] is Str.pn.R (strain 00-041-0614). Put plainly: Sensitivity of strain to known antibiotics. The settings on record: sensitive / resistant. Format: cell-based, Streptococcus. The protocol:
(§1) This embodiment illustrates the efficacy of the compounds of the present invention against Streptococcus strains. One of the strains, Str.pn.R was obtained from the Children's Hospital in Buffalo (strain 00-041-0614). […] The sensitivity of this strain was tested against several known antibiotics.

Assay [2] relates to staphylococcus species R (strain 00-045-1209). Put plainly: Sensitivity of strain to known antibiotics. Format: cell-based. The settings on record: sensitive / resistant. The method, then:
(§2) This embodiment describes the sensitivity of various staphylococcus strains to the compounds of the present invention. The staphylococcus species R is a strain 00-045-1209 from the Children's Hospital in Buffalo. It was isolated from the peritoneal cavity (fluid culture) of an individual. It was coagulase negative. The sensitivity of this strain was tested agaisnt several known antibiotics.

In assay [3] the test system is Aa Y4. Put plainly: MIC microdilution, gram negative. Format: cell-based, Actinobacillus actinomycetemcomitans. The method, then: (§3) The MIC's for the compounds were determined by a modified microdilution tube dilution method described in “Methods for Dilution Antimicrobial Susceptibility Tests for Bacteria that Grow Aerobically” (National Committee for Clinical Laboratory Standards Approved Standards, 1997, NCCLS document M7-A4). In general the modifications were made because of the unique growth requirements for the fastidious oral organisms and for those bacteria that require anaerobic conditions. Reference is also made to “Methods for Antimicrobial Susceptibility of Anaerobic Bacteria” (National Committee for Clinical Laboratory Standards Approved Standards, 1997, NCCLS document M11-A4). Briefly, the methods were as follows. Cultures were grown for 18-24hrs (aerobic bacteria) or 48-72 hrs (anaerobic bacteria) in the appropriate medium. For aerobic bacteria full strength brain heart infusion medium (BHI, Difco) was used. For anaerobic bacteria, half strength BHI (18.5 g/L) was supplemented by adding yeast extract (10 g/L), hemin (0.29 mL of a stock solution containing 0.1 g/200 mL dH2O) and menadione (15 mL of a stock solution containing 0.15 mL in 30 mL 95% EtOH) was used. Initial cultures were diluted to approximately 1×10^8 CFU/mL for use as an inoculum. Each assay received 10 μL of the inoculum. The drugs were prepared from a stock solution contained in dimethyl sulfoxide (DMSO) and diluted into the culture medium. Final concentrations of the drugs ranged from 50 to 0.05 μg/assay. The tests were run in duplicate and were incubated appropriately with regard to oxygen requirements for 24 to 48 hrs as required. Anaerobic incubation was an atmosphere of 5% CO2, 10% H2, with the balance N2. The lowest concentration of an antimicrobial agent at which no visible growth is noted was referred to as the MIC. […] The method used was the same as described in Example 1.
A general note: Broth dilution looks for growth in wells or tubes with falling amounts of substance.

Assay [4] relates to Str. pn. The assay can be described thus: Mean Streptococcus MIC. Format: cell-based. The settings on record: Table 5, mean. The method, then:
(§4) The MIC's for the compounds were determined by a modified microdilution tube dilution method described in “Methods for Dilution Antimicrobial Susceptibility Tests for Bacteria that Grow Aerobically” (National Committee for Clinical Laboratory Standards Approved Standards, 1997, NCCLS document M7-A4). In general the modifications were made because of the unique growth requirements for the fastidious oral organisms and for those bacteria that require anaerobic conditions. Reference is also made to “Methods for Antimicrobial Susceptibility of Anaerobic Bacteria” (National Committee for Clinical Laboratory Standards Approved Standards, 1997, NCCLS document M11-A4).
(§5) Briefly, the methods were as follows. Cultures were grown for 18-24hrs (aerobic bacteria) or 48-72 hrs (anaerobic bacteria) in the appropriate medium. For aerobic bacteria full strength brain heart infusion medium (BHI, Difco) was used. For anaerobic bacteria, half strength BHI (18.5 g/L) was supplemented by adding yeast extract (10 g/L), hemin (0.29 mL of a stock solution containing 0.1 g/200 mL dH2O) and menadione (15 mL of a stock solution containing 0.15 mL in 30 mL 95% EtOH) was used. Initial cultures were diluted to approximately 1×10^8 CFU/mL for use as an inoculum. Each assay received 10 μL of the inoculum. The drugs were prepared from a stock solution contained in dimethyl sulfoxide (DMSO) and diluted into the culture medium. Final concentrations of the drugs ranged from 50 to 0.05 μg/assay. The tests were run in duplicate and were incubated appropriately with regard to oxygen requirements for 24 to 48 hrs as required. Anaerobic incubation was an atmosphere of 5% CO2, 10% H2, with the balance N2. The lowest concentration of an antimicrobial agent at which no visible growth is noted was referred to as the MIC.
as §1

Assay [5] relates to Str. pn. R. The assay can be described thus: Mean Streptococcus MIC. Format: cell-based. To be noted: Table 5, mean; strain resistant to penicillin and erythromycin. The protocol:
as §4, §5, §1

Assay [6] deals with Str. pyo. The assay can be described thus: Mean Streptococcus MIC. Format: cell-based. To be noted: Table 5, mean. The method, then: as §4, §5, §1
Assay [7] deals with S.salivarius. The assay can be described thus: MIC microdilution, gram positive. Format: cell-based, Streptococcus salivarius. To be noted: Table 1, Gram Positive. The method, then:
(§6) The MIC's for the compounds were determined by a modified microdilution tube dilution method described in “Methods for Dilution Antimicrobial Susceptibility Tests for Bacteria that Grow Aerobically” (National Committee for Clinical Laboratory Standards Approved Standards, 1997, NCCLS document M7-A4). In general the modifications were made because of the unique growth requirements for the fastidious oral organisms and for those bacteria that require anaerobic conditions. Reference is also made to “Methods for Antimicrobial Susceptibility of Anaerobic Bacteria” (National Committee for Clinical Laboratory Standards Approved Standards, 1997, NCCLS document M11-A4). Briefly, the methods were as follows. Cultures were grown for 18-24hrs (aerobic bacteria) or 48-72 hrs (anaerobic bacteria) in the appropriate medium. For aerobic bacteria full strength brain heart infusion medium (BHI, Difco) was used. For anaerobic bacteria, half strength BHI (18.5 g/L) was supplemented by adding yeast extract (10 g/L), hemin (0.29 mL of a stock solution containing 0.1 g/200 mL dH2O) and menadione (15 mL of a stock solution containing 0.15 mL in 30 mL 95% EtOH) was used. Initial cultures were diluted to approximately 1×10^8 CFU/mL for use as an inoculum. Each assay received 10 μL of the inoculum. The drugs were prepared from a stock solution contained in dimethyl sulfoxide (DMSO) and diluted into the culture medium. Final concentrations of the drugs ranged from 50 to 0.05 μg/assay. The tests were run in duplicate and were incubated appropriately with regard to oxygen requirements for 24 to 48 hrs as required. Anaerobic incubation was an atmosphere of 5% CO2, 10% H2, with the balance N2. The lowest concentration of an antimicrobial agent at which no visible growth is noted was referred to as the MIC.

The subject of assay [8] is Fuso. 25586. Put plainly: MIC microdilution, gram negative. Format: cell-based, Fusobacterium nucleatum. The method, then: as §3
For assay [9], the system named is M. luteus. Put plainly: MIC microdilution, gram positive. Format: cell-based, Micrococcus luteus. To be noted: Table 2, Gram Positive. The protocol: as §6
Assay [10] concerns S. species R. Put plainly: Staphylococcus MIC. Format: cell-based, staphylococcus species R. To be noted: second Table 5 (Example 5); strain 00-045-1209. The protocol: as §4, §5, §2
Assay [11] deals with S. mutans. Put plainly: MIC microdilution, gram positive. Format: cell-based, Streptococcus mutans. The settings on record: Table 1, Gram Positive. The method, then:
as §6

Assay [12] concerns S. sanguis. Put plainly: MIC microdilution, gram positive. Format: cell-based, Streptococcus sanguis. The settings on record: Table 1, Gram Positive. The protocol: as §6
Assay [13] concerns A. viscosus. The assay can be described thus: MIC microdilution, gram positive. Format: cell-based, Actinomyces viscosus. To be noted: Table 2, Gram Positive. The method, then: as §6
Assay [14] concerns Pg 53977. Put plainly: MIC microdilution, gram negative. Format: cell-based, Porphyromonas gingivalis. The method, then: as §3
Assay [15] has as its system P. ging 381. The assay can be described thus: MIC microdilution, gram negative. Format: cell-based, Porphyromonas gingivalis. The method, then: as §3
Assay [16] has as its system P. acnes 6922. Put plainly: MIC microdilution, gram positive. To be noted: Table 1, Gram Positive. Format: cell-based, Propionibacterium acnes. The protocol: as §6
Assay [17] has as its system P. acnes 11828. Put plainly: MIC microdilution, gram positive. The settings on record: Table 1, Gram Positive. Format: cell-based, Propionibacterium acnes. The protocol:
as §6

Assay [18] concerns B. fragilis. Put plainly: MIC microdilution, gram negative. Format: cell-based, Bacteroides fraglis. The protocol: as §3
The test system of assay [19] is S. aureus. The assay can be described thus: MIC microdilution, gram positive. Format: cell-based, Staphlococcus aureus. The method, then:
as §4, §5, §2

Assay [20] concerns Lact 7496. Put plainly: MIC microdilution, gram positive. Format: cell-based, Lactobacillus rhamnosus (casei). To be noted: Table 2, Gram Positive. The protocol: as §6
Setting [21] is: Table 3 printed a second time, Gram Negative.

`CN[C@H](CC(C)C)C(=O)N[C@H]1C(=O)N[C@@H](CC(N)=O)C(=O)N[C@H]2C(=O)N[C@H]3C(=O)N[C@H](C(=O)N[C@H](C(=O)O)c4cc(O)cc(O)c4-c4cc3ccc4O)[C@H](O)c3ccc(c(Cl)c3)Oc3cc2cc(c3O[C@@H]2O[C@H](CO)[C@@H](O)[C@H](O)[C@H]2O[C@H]2C[C@](C)(N)[C@H](O)[C@H](C)O2)Oc2ccc(cc2Cl)[C@H]1O` [Vancomycin]: the “sensitivity of strain Str.pn.R to known antibiotics” value in assay [1] was “sensitive”. Besides, the “sensitivity of staphylococcus species R to known antibiotics” value in assay [2] is on record as “sensitive”.

As to `N#Cc1cccc(NC(=O)c2cc(C(=O)c3ccc4ccccc4c3)ccc2O)c1` [NA2mC], the “MIC Aa Y4” value in assay [3] (Table 3, Gram Negative) is on record as “NE (NE indicates that the drug was not effective at a concentration >50 micrograms/ml)”; in [3] (setting [21]), “NE (NE indicates that the drug was not effective at a concentration >50 micrograms/ml)”. In [4], the “Mean Streptococcus MIC values Str. pn” value stood at 0.91 micrograms/ml. In addition, in assay [5], the “Mean Streptococcus MIC values Str. pn. R” value turned out to be 6.25 micrograms/ml. In addition, the “Mean Streptococcus MIC values Str. pyo” value in assay [6] was “NE (NE indicates that the drug was not effective at a concentration >50 micrograms/ml)”. Moreover, in assay [7], the “MIC S.salivarius” value came out at 50 micrograms/ml. Also, the “MIC Fuso. 25586” value in assay [8] (Table 3, Gram Negative) is on record as “NE (NE indicates that the drug was not effective at a concentration >50 micrograms/ml)”; in assay [8] (setting [21]) it was “NE (NE indicates that the drug was not effective at a concentration >50 micrograms/ml)”. In addition, the “MIC M. luteus” value in assay [9] amounted to 3.1 micrograms/ml. Besides, in assay [10], the “MIC S. species R” value is “NE (NE indicates that the drug was not effective at a concentration >50 micrograms/ml)”. Further, the “MIC S. mutans” value in [11] came out at 6.3 micrograms/ml. Further, in [12], the “MIC S. sanguis” value came out at 6.3 micrograms/ml. Also, in assay [13], the “MIC A. viscosus” value is given as 1.6 micrograms/ml. Also, the “MIC Pg 53977” value in [14] (Table 3, Gram Negative) was 0.8 micrograms/ml; in [14] (setting [21]), 0.8 micrograms/ml. Moreover, the “MIC P. ging 381” value in assay [15] (Table 3, Gram Negative) is 0.8 micrograms/ml; in assay [15] (setting [21]) it was 0.8 micrograms/ml. For the same molecule, the “MIC P. acnes 6922” value in [16] came out at 6.3 micrograms/ml. In assay [17], the “MIC P. acnes 11828” value stood at 12.5 micrograms/ml. The “MIC B. fragilis” value in [18] (Table 3, Gram Negative) came out at 3.1 micrograms/ml; in assay [18] (setting [21]), 3.1 micrograms/ml. Moreover, the “MIC S. aureus” value in assay [19] (Table 2, Gram Positive) was “NE (NE indicates that the drug was not effective at a concentration >50 micrograms/ml)”; in [19] (second Table 5 (Example 5)), “NE (NE indicates that the drug was not effective at a concentration >50 micrograms/ml)”. Further, the “MIC Lact 7496” value in [20] was determined as 12.5 micrograms/ml.

In the case of `CC[C@H]1OC(=O)[C@H](C)[C@@H](O[C@H]2C[C@@](C)(OC)[C@@H](O)[C@H](C)O2)[C@H](C)[C@@H](O[C@@H]2O[C@H](C)C[C@H](N(C)C)[C@H]2O)[C@](C)(O)C[C@@H](C)C(=O)[C@H](C)[C@@H](O)[C@]1(C)O` [erythromycin], the “sensitivity of strain Str.pn.R to known antibiotics” value in assay [1] is given as “resistant”. Also, the “sensitivity of staphylococcus species R to known antibiotics” value in assay [2] was “resistant”.
